Laboratory results taken from the supplement of paper PMC10307832.

Assays:
Assay in all cases: relative viability (nuclei count vs DMSO), 5 days (fraction); higher = more cells survive
[1] = compound: Cn1cnc2c(F)c(Nc3ccc(Br)cc3Cl)c(C(=O)NOCCO)cc21 [Selumetinib] + Nc1ncn([C@H]2C[C@H](O)[C@@H](CO)O2)c(=O)n1 [Decitabine] (partner 2 µM)
Summary of the method: (§1)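 Relative viability is defined as nuclei in treated wells over nuclei in vehicle wells. Duplicate plates were run and medians reported. Lung cancer cell lines in 1536-well plates were dosed by pin tool one day after seeding, with one drug or with a fixed anchor-drug dose plus five library-drug doses (not always all listed) in √10 steps, and nuclei were counted after 5 days.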

[2] = compound: Cn1cnc2c(F)c(Nc3ccc(Br)cc3Cl)c(C(=O)NOCCO)cc21 [Selumetinib] + C[C@]1(O)C[C@@H](c2nc(-c3ccc4ccc(-c5ccccc5)nc4c3)c3c(N)nccn32)C1 [Linsitinib] (partner 1 µM)
Summary of the method: as §1

[3] = compound: Cn1cnc2c(F)c(Nc3ccc(Br)cc3Cl)c(C(=O)NOCCO)cc21 [Selumetinib] + CC(=O)Nc1cccc(-n2c(=O)n(C3CC3)c(=O)c3c(Nc4ccc(I)cc4F)n(C)c(=O)c(C)c32)c1 [Trametinib] (partner 0.02 µM)
Summary of the method: as §1

[4] = compound: CC1(C)CCC(CN2CCN(c3ccc(C(=O)NS(=O)(=O)c4ccc(NCC5CCOCC5)c([N+](=O)[O-])c4)c(Oc4cnc5[nH]ccc5c4)c3)CC2)=C(c2ccc(Cl)cc2)C1 [Venetoclax] + CCNC(=O)c1noc(-c2cc(C(C)C)c(O)cc2O)c1-c1ccc(CN2CCOCC2)cc1 [Luminespib] (partner 0.01 µM)
Summary of the method: as §1

Cell Line | relative viability ([1]; first compound 0.02 µM) | relative viability ([1]; first compound 0.06325 µM) | relative viability ([1]; first compound 0.2 µM) | relative viability ([1]; first compound 0.6325 µM) | relative viability ([2]; first compound 0.02 µM) | relative viability ([2]; first compound 0.06325 µM) | relative viability ([2]; first compound 0.2 µM) | relative viability ([2]; first compound 0.6325 µM) | relative viability ([3]; first compound 0.02 µM) | relative viability ([3]; first compound 0.06325 µM) | relative viability ([3]; first compound 0.2 µM) | relative viability ([3]; first compound 0.6325 µM) | relative viability ([4]; first compound 0.01 µM) | relative viability ([4]; first compound 0.03162 µM) | relative viability ([4]; first compound 0.1 µM) | relative viability ([4]; first compound 0.3162 µM) | relative viability ([4]; first compound 1 µM)
NCI-H520 | 0.551 | 0.493 | 0.523 | 0.606 | 1.08 | 0.944 | 1.09 | 1.07 | 0.826 | 0.677 | 0.749 | 0.776 | 0.258 | 0.209 | 0.221 | 0.209 | 0.187
NCI-H596 | 0.927 | 0.936 | 0.922 | 0.83 | 1.07 | 1.02 | 1.01 | 0.776 | 0.743 | 0.881 | 0.741 | 0.607 | 1.03 | 0.947 | 1.03 | 0.994 | 1.06
NCI-H647 | 0.354 | 0.351 | 0.621 | 0.447 | 1.28 | 1.06 | 0.827 | 0.803 | 0.478 | 0.391 | 0.405 | 0.484 | 0.167 | 0.206 | 0.124 | 0.123 | 0.151
NCI-H650 | 0.334 | 0.283 | 0.342 | 0.376 | 1.18 | 1.03 | 0.941 | 1.07 | 0.963 | 1.03 | 0.979 | 0.866 | 0.805 | 0.837 | 0.751 | 0.954 | 0.735
NCI-H661 | 0.572 | 0.492 | 0.546 | 0.51 | 0.614 | 0.455 | 0.469 | 0.457 | 0.585 | 0.575 | 0.567 | 0.537 | 0.924 | 0.956 | 0.894 | 0.822 | 0.871
NCI-H727 | 0.762 | 0.578 | 0.606 | 0.583 | 0.17 | 0.207 | 0.168 | 0.166 | 0.348 | 0.367 | 0.421 | 0.381 | 0.465 | 0.439 | 0.209 | 0.303 | 0.357
NCI-H838 | 0.446 | 0.421 | 0.45 | 0.448 | 0.883 | 0.848 | 0.807 | 0.735 | 0.482 | 0.52 | 0.529 | 0.524 | 0.408 | 0.255 | 0.24 | 0.378 | 0.275
NCI-H1355 | 0.385 | 0.357 | 0.377 | 0.329 | 0.72 | 0.744 | 0.734 | 0.555 | 0.407 | 0.459 | 0.464 | 0.416 | 0.748 | 0.759 | 0.667 | 0.782 | 0.778
NCI-H1395 | 0.698 | 0.712 | 0.675 | 0.639 | 1.05 | 0.939 | 0.973 | 1.08 | 1.09 | 0.964 | 0.932 | 1.05 | 0.661 | 0.805 | 0.517 | 0.793 | 0.658
NCI-H1437 | 0.614 | 0.537 | 0.464 | 0.544 | 0.905 | 0.714 | 0.423 | 0.277 | 0.558 | 0.546 | 0.516 | 0.528 | 1.07 | 1.19 | 1.13 | 1.15 | 1.07
NCI-H1651 | 0.626 | 0.531 | 0.644 | 0.701 | 0.973 | 0.962 | 0.815 | 0.902 | 0.854 | 0.85 | 0.835 | 0.87 | 0.872 | 0.882 | 0.817 | 0.8 | 0.79
NCI-H1666 | 0.758 | 0.682 | 0.689 | 0.71 | 0.643 | 0.614 | 0.606 | 0.54 | 0.867 | 0.854 | 0.807 | 0.845 | 0.894 | 1.08 | 0.953 | 0.973 | 0.996
NCI-H1734 | 0.53 | 0.479 | 0.502 | 0.528 | 0.862 | 0.849 | 0.865 | 0.816 | 0.708 | 0.73 | 0.707 | 0.723 | 0.184 | 0.188 | 0.244 | 0.204 | 0.224
NCI-H1755 | 0.716 | 0.729 | 0.662 | 0.73 | 0.95 | 0.852 | 0.845 | 0.848 | 0.78 | 0.753 | 0.778 | 0.752 | 0.534 | 0.452 | 0.556 | 0.348 | 0.55
NCI-H1792 | 0.635 | 0.486 | 0.52 | 0.425 | 0.442 | 0.475 | 0.361 | 0.251 | 0.439 | 0.521 | 0.452 | 0.402 | 0.381 | 0.492 | 0.329 | 0.374 | 0.375
NCI-H1793 | 0.494 | 0.527 | 0.468 | 0.401 | 0.883 | 0.817 | 0.419 | 0.392 | 0.424 | 0.414 | 0.443 | 0.436 | 0.152 | 0.194 | 0.164 | 0.19 | 0.162
NCI-H1915 | 0.28 | 0.263 | 0.239 | 0.246 | 0.768 | 1.02 | 0.926 | 0.539 | 0.311 | 0.302 | 0.288 | 0.257 | 0.745 | 0.808 | 0.708 | 0.699 | 0.695
